From patent publication US7528141B2, “Use of cyclopenta[g]quinazoline derivatives for treating cancer” (BTG International Limited, priority 2001, dated 2009) come the findings set out here.

As usually defined, the IC50 is the point on the concentration scale where inhibition reaches its midpoint.

The target of assay [1] is T1, thymidylate synthase (TS) from L1210 mouse leukaemia cells (Mus musculus, UniProt P07607).
T1 construct: obtained in partially purified form from L1210 mouse leukaemia cells; endogenous in cells; host or cells: L1210 mouse leukaemia cells (enzyme partially purified)
T1 sequence (P07607 whole entry): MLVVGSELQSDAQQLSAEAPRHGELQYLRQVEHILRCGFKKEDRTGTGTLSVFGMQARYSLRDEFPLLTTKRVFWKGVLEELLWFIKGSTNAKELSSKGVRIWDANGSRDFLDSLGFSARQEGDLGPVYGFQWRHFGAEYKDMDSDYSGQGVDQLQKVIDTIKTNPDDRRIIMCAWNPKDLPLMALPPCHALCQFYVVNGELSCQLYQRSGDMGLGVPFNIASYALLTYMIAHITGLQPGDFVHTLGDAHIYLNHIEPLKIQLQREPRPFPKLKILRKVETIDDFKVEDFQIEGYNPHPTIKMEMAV
Description: Inhibition of isolated L1210 thymidylate synthase. Type of assay: biochemical.

Assay [2] deals with T2, reduced-folate carrier (RFC) (Mus musculus, UniProt P41438).
T2 construct: endogenous in cells; host or cells: L1210
T2 sequence (P41438 1-512): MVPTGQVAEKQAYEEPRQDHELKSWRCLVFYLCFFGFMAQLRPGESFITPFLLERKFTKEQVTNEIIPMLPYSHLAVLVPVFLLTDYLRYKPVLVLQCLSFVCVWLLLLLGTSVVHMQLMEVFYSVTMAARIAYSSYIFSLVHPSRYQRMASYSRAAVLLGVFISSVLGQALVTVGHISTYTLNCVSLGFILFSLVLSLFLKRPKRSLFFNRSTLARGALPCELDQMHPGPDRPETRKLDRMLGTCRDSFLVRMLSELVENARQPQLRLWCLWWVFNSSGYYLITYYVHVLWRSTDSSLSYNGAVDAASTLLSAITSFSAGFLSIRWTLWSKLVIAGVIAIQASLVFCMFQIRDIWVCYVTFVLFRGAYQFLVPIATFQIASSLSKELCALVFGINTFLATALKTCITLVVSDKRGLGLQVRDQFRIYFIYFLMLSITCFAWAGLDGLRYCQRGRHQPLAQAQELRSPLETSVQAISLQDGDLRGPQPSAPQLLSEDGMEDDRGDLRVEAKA
Description: Inhibition of 3H MTX uptake in L1210 cells. Type of assay: cell-based. As to conditions: Inhibition of 3H MTX uptake Ki, L1210, mouse L1210 tumor cells; high Ki = low affinity for RFC.

The target in assay [3] is T3, reduced-folate carrier (RFC) (Homo sapiens, UniProt P41440).
T3 construct: endogenous in cells; host or cells: W1L2
T3 sequence (P41440 1-591): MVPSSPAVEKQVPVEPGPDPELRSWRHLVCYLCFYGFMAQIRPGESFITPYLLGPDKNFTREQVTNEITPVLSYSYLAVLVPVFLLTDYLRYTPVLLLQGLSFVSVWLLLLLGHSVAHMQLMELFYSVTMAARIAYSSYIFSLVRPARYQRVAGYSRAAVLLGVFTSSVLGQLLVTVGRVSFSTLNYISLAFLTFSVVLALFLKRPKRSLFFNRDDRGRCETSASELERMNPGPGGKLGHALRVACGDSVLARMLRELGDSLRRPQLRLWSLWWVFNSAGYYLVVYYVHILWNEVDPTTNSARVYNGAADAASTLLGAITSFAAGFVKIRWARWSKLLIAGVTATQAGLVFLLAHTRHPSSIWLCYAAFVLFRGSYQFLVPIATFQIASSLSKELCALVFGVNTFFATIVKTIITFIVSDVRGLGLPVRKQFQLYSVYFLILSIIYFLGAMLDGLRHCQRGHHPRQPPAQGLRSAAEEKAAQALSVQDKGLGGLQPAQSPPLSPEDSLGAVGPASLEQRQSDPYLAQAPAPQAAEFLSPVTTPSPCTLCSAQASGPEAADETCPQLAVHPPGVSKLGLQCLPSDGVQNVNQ
Description: Inhibition of 3H MTX uptake in W1L2 cells. Type of assay: cell-based. To be noted: Inhibition of 3H MTX uptake Ki, W1L2, human lymphoblastoid W1L2 cells; high Ki = low affinity for RFC.

Assay [4] concerns the target T4, α-FR (Mus musculus, UniProt P35846).
T4 construct: endogenous in cells; host or cells: mouse L1210-FBP cells
The experiment in a line: Binding to α-FR relative to folic acid, L1210-FBP cells. As to conditions: L1210-FBP mouse tumor cells overexpressing α-FR; folic acid = 1.

Assay [5] has as its target T5, α-FR (Homo sapiens, UniProt P15328).
T5 construct: expressed in transfected cells; host or cells: A431 (human vulvar carcinoma)
Description: Binding to α-FR relative to folic acid, A431-FBP cells. As to conditions: human A431 cells transfected with α-FR; folic acid = 1.

For another assay, the system named is KB cells. The experiment in a line: Inhibition of cell growth, KB cells.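 For all read-outs here: KB nasopharyngeal carcinoma cells express the α-folate receptor, and leucovorin at 20 nM was the folate source in the growth medium.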 To be noted: for fold increased IC50 in presence of folic acid, KB: IC50 + 1 μM FA vs without FA.
Another assay concerns A431 cells. The experiment in a line: Inhibition of cell growth, A431 cells. To be noted: for fold increased IC50 in presence of folic acid, A431: IC50 + 1 μM FA vs without FA.
The test system of another assay is A431-FBP cells. Description: Inhibition of cell growth, A431-FBP cells. As to conditions: for fold increased sensitivity compared with A431, A431-FBP: A431 IC50 vs A431-FBP IC50; for fold increased IC50 in presence of folic acid, A431-FBP: IC50 + 1 μM FA vs without FA.
The mark [6] stands for this setting: Homo sapiens, KB, read-out: Inhibition of cell growth, IC50, KB, 20 nM LV.
The mark [7] stands for this setting: Homo sapiens, A-431, read-out: Inhibition of cell growth, IC50, A431.
Setting [8] is: Homo sapiens, read-out: Inhibition of cell growth, IC50, A431-FBP.
Where [9] appears, read: read-out: Inhibition of cell growth, IC50, A431-FBP + 1 μM FA, 20 nM LV, + 1 μM folic acid.
The mark [10] stands for this setting: read-out: Inhibition of isolated L1210 TS, Kiapp.
The mark [11] stands for this setting: read-out: Inhibition of cell growth, IC50, KB + 1 μM FA, 20 nM LV, + 1 μM folic acid.
The mark [12] stands for this setting: read-out: Inhibition of cell growth, IC50, A431 + 1 μM FA, 20 nM LV, + 1 μM folic acid.

Molecules are shown by their SMILES. Where “and” joins values, the source holds several entries; their conditions need not be identical. Equal values may be shown once. Read-outs that look alike come from different tables or passages of the source. Bounds are passed on as bounds.

T5 sequence (P15328 25-234): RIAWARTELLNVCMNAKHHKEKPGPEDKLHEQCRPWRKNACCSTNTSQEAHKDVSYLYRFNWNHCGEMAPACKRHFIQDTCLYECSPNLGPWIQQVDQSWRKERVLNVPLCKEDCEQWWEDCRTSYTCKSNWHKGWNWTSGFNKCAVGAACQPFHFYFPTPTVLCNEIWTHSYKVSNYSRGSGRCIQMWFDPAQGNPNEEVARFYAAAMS
T4 sequence (P35846 25-232): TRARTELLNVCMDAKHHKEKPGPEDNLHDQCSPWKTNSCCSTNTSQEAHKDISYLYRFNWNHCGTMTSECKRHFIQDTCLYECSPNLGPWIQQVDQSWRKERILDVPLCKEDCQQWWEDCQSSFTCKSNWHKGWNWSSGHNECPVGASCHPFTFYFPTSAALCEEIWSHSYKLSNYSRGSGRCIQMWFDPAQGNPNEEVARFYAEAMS

Consider `C#CCN(c1ccc(C(=O)N[C@@H](CCC(=O)N[C@H](CCC(=O)O)C(=O)O)C(=O)O)cc1)C1CCc2cc3nc(CO)[nH]c(=O)c3cc21` (mixture of isomers) [CB300945 (R, S)], for which the Ki in assay [1] (Inhibition of isolated L1210 TS, Kiapp) was 2.6 nM and 3.3 nM; in assay [2], > 250 µM; in assay [3], > 250 µM. For the same compound, the “Inverse relative affinity for α-FR, L1210-FBP” value at α-FR [4] was found to be 0.73 ± 0.06. Further, the “Inverse relative affinity for α-FR, A431-FBP” value at α-FR [5] was 0.67 ± 0.11. In the assay with KB cells (20 nM LV), the “fold increased IC50 in presence of folic acid, KB” value (“fold increased IC50 … KB” for short) was “(2100) fold”. In addition, the IC50 with KB cells (setting [6]) was determined as 3.4 ± 0.9 nM; in the assay with A431 cells (setting [7]), 9800 ± 3400 nM; with A431-FBP cells (setting [8]), 2.1 ± 1.1 nM; in the assay with A431-FBP cells (setting [9]), 6500 ± 860 nM. Also, the “fold increased IC50 in presence of folic acid, A431” value in the assay on A431 cells (20 nM LV) is reported as “(1) fold”. The “fold increased sensitivity compared with A431, A431-FBP” value (“fold increased sensitivity” for short) in the assay on A431-FBP cells (20 nM LV) is listed as “(4700) fold”. The “fold increased IC50 in presence of folic acid, A431-FBP” value (shortened to “fold increased IC50 … A431-FBP”) with A431-FBP cells (20 nM LV) is given as “(3100) fold”.

As to `C#CCN(c1ccc(C(=O)N[C@@H](CCC(=O)N[C@H](CCC(=O)O)C(=O)O)C(=O)O)c(F)c1)C1CCc2cc3nc(C)[nH]c(=O)c3cc21` (mixture of isomers) [CB300947 (R, S), N-{N-{4-[N-((6RS)-2methyl-4-oxo-3,4,7,8-tetrahydro-6H-cyclopenta[g]-quinazolin-6-yl)-N-(prop-2-ynyl)amino]-2-fluorobenzoyl}-L-γ-glutamyl}-D-glutamic acid], the Ki is 0.46 nM and 0.77 nM in assay [1] (setting [10]); > 250 µM in assay [2]; 97 µM and 315 µM in assay [3]. Moreover, the “Inverse relative affinity for α-FR, L1210-FBP” value on α-FR [4] is 0.73 ± 0.01. For the same compound, on α-FR [5], the “Inverse relative affinity for α-FR, A431-FBP” value was found to be 0.58 ± 0.017. In the assay on KB cells (20 nM LV), the “fold increased IC50 … KB” value is listed as “(73) fold”. In addition, the IC50 in the assay on KB cells (setting [6]) was found to be 8 ± 1 nM; in the assay on KB cells (setting [11]), 580 ± 30 nM; in the assay on A431 cells (setting [7]), 1400 ± 260 nM; with A431 cells (setting [12]), 1200 ± 510 nM; with A431-FBP cells (setting [8]), 9.4 ± 4 nM; in the assay on A431-FBP cells (setting [9]), 930 ± 210 nM. Besides, the “fold increased IC50 in presence of folic acid, A431” value in the assay on A431 cells (20 nM LV) is “(1) fold”. Besides, the “fold increased sensitivity” value in the assay on A431-FBP cells (20 nM LV) was “(150) fold”. Besides, the “fold increased IC50 … A431-FBP” value in the assay on A431-FBP cells (20 nM LV) is reported as “(100) fold”.

As to `C#CCN(c1ccc(C(=O)N[C@@H](CCC(=O)N[C@H](CCC(=O)O)C(=O)O)C(=O)O)cc1)[C@H]1CCc2cc3nc(C)[nH]c(=O)c3cc21` [CB300638 (S)], the Ki was 0.33 ± 0.16 nM in assay [1] (setting [10]), > 250 µM in assay [2] and 115 ± 12 µM in assay [3]. Moreover, at α-FR [4], the “Inverse relative affinity for α-FR, L1210-FBP” value turned out to be 0.66 ± 0.08. Also, the “Inverse relative affinity for α-FR, A431-FBP” value at α-FR [5] was determined as 0.53 ± 0.07. For the same compound, the “fold increased IC50 … KB” value with KB cells (20 nM LV) was “(110) fold”. In addition, the IC50 with KB cells (setting [6]) was found to be 3.6 ± 1.5 nM; in the assay on KB cells (setting [11]) it was 390 ± 180 nM; with A431 cells (setting [7]) it was 810 ± 310 nM; in the assay with A431 cells (setting [12]), 970 ± 580 nM; with A431-FBP cells (setting [8]) it was 3 ± 2.1 nM; in the assay with A431-FBP cells (setting [9]), 490 ± 170 nM. Further, the “fold increased IC50 in presence of folic acid, A431” value in the assay on A431 cells (20 nM LV) is “(1) fold”. The “fold increased sensitivity” value with A431-FBP cells (20 nM LV) is on record as “(270) fold”. The “fold increased IC50 … A431-FBP” value with A431-FBP cells (20 nM LV) was “(160) fold”.

`C#CCN(c1ccc(C(=O)N[C@@H](CCC(=O)N[C@H](CCC(=O)O)c2nnn[nH]2)C(=O)O)cc1)[C@H]1CCc2cc3nc(C)[nH]c(=O)c3cc21` [CB300907 (S)]: the Ki is 0.16 nM and 0.17 nM in assay [1] (setting [10]); 186 ± 121 µM in assay [2]; 142 ± 54 µM in assay [3]. In addition, at α-FR [4], the “Inverse relative affinity for α-FR, L1210-FBP” value was determined as 0.61 ± 0.07. Besides, the “Inverse relative affinity for α-FR, A431-FBP” value at α-FR [5] is listed as 0.58 ± 0.032. Moreover, the “fold increased IC50 … KB” value with KB cells (20 nM LV) is reported as “(79) fold”. Also, the IC50 came out at 6.2 ± 3 nM in the assay on KB cells (setting [6]); 490 ± 140 nM in the assay with KB cells (setting [11]); 1400 ± 820 nM in the assay with A431 cells (setting [7]); 1600 ± 1100 nM in the assay with A431 cells (setting [12]); 2.6 ± 1.8 nM in the assay with A431-FBP cells (setting [8]); 430 ± 180 nM in the assay with A431-FBP cells (setting [9]). For the same compound, the “fold increased IC50 in presence of folic acid, A431” value in the assay with A431 cells (20 nM LV) is on record as “(1) fold”. Moreover, in the assay with A431-FBP cells (20 nM LV), the “fold increased sensitivity” value was “(540) fold”. Further, the “fold increased IC50 … A431-FBP” value in the assay with A431-FBP cells (20 nM LV) is recorded as “(170) fold”.
